In US12077503B2, “Substituted cyclic amides and their use as herbicides” (FMC CORPORATION, priority 2015, dated 2024):

Columns and labels:
Assay type in all cases: in vivo
Kochia (Kochia scoparia) [1] = assay: Test A preemergence; conditions: for Plant response rating, Kochia: 125 g ai/ha; for Kochia plant response rating (0 to 100 scale, 0 is no effect, 100 is complete control): 500 g ai/ha, visual injury approx. 10 d
How it was run: (§1)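 Visual injury, scored on a 0–100 scale relative to untreated controls, was recorded about 10 d after application. Treatments were a preemergence soil spray over planted seeds or a postemergence spray on plants at the one- to two-leaf stage, 2 to 10 cm tall, all in loam soil–sand blend in the greenhouse.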

[2] = tested on: barnyardgrass (Echinochloa crus-galli); assay: Test A preemergence; conditions: for Plant response rating, Barnyardgrass: 125 g ai/ha; for Barnyardgrass plant response rating (0 to 100 scale, 0 is no effect, 100 is complete control): 500 g ai/ha, visual injury approx. 10 d
How it was run: as §1

[3] = tested on: giant foxtail (Setaria faberii); assay: Test A preemergence; conditions: for Plant response rating, Foxtail, Giant: 125 g ai/ha; for Foxtail, Giant plant response rating (0 to 100 scale, 0 is no effect, 100 is complete control): 500 g ai/ha, visual injury approx. 10 d
How it was run: as §1

[4] = tested on: pigweed (Amaranthus retroflexus); assay: Test A preemergence; conditions: Preemergence; for Plant response rating, Pigweed: 125 g ai/ha, visual injury after approximately 10 d, 0 to 100 scale where 0 is no effect and 100 is complete control; for Pigweed plant response rating (0 to 100 scale, 0 is no effect, 100 is complete control): 500 g ai/ha, visual injury approx. 10 d
[5] = tested on: ragweed (common ragweed, Ambrosia elatior); assay: Test A preemergence; conditions: Preemergence; for Plant response rating, Ragweed: 125 g ai/ha, visual injury after approximately 10 d, 0 to 100 scale where 0 is no effect and 100 is complete control; for Ragweed plant response rating (0 to 100 scale, 0 is no effect, 100 is complete control): 500 g ai/ha, visual injury approx. 10 d
How it was run: as §1

[6] = tested on: ryegrass, Italian (Italian ryegrass, Lolium multiflorum); assay: Test A preemergence; conditions: Preemergence; for Plant response rating, Ryegrass, Italian: 125 g ai/ha, visual injury after approximately 10 d, 0 to 100 scale where 0 is no effect and 100 is complete control; for Ryegrass, Italian plant response rating (0 to 100 scale, 0 is no effect, 100 is complete control): 500 g ai/ha, visual injury approx. 10 d
How it was run: as §1

[7] = tested on: Galium (catchweed bedstraw, Galium aparine); assay: Test A postemergence; conditions: for Galium plant response rating: 125 g ai/ha, postemergence, visual injury rating on 0 to 100 scale (0 no effect, 100 complete control), approx. 10 d; for Plant response rating, Galium: Postemergence, 500 g ai/ha, 0 to 100 scale where 0 is no effect and 100 is complete control
How it was run: as §1

Kochia (Kochia scoparia) [8] = assay: Test A postemergence; conditions: for Kochia plant response rating: 125 g ai/ha, postemergence, visual injury rating on 0 to 100 scale (0 no effect, 100 complete control), approx. 10 d; for Plant response rating, Kochia: Postemergence, 500 g ai/ha, 0 to 100 scale where 0 is no effect and 100 is complete control
How it was run: as §1

[9] = tested on: barnyardgrass (Echinochloa crus-galli); assay: Test A postemergence; conditions: for Barnyardgrass plant response rating: 125 g ai/ha, visual injury rating on 0 to 100 scale (0 no effect, 100 complete control), approx. 10 d; for Plant response rating, Barnyardgrass: 500 g ai/ha
How it was run: as §1

[10] = tested on: blackgrass (Alopecurus myosuroides); assay: Test A postemergence; conditions: for Blackgrass plant response rating: 125 g ai/ha, visual injury rating on 0 to 100 scale (0 no effect, 100 complete control), approx. 10 d; for Plant response rating, Blackgrass: 500 g ai/ha
How it was run: as §1

corn (Zea mays) = assay: Test A postemergence; conditions: for Corn plant response rating: 125 g ai/ha, visual injury rating on 0 to 100 scale (0 no effect, 100 complete control), approx. 10 d; for Plant response rating, Corn: 500 g ai/ha
How it was run: as §1

[11] = tested on: giant foxtail (Setaria faberii); assay: Test A postemergence; conditions: for Foxtail, Giant plant response rating: 125 g ai/ha, postemergence, visual injury rating on 0 to 100 scale (0 no effect, 100 complete control), approx. 10 d; for Plant response rating, Foxtail, Giant: Postemergence, 500 g ai/ha, 0 to 100 scale where 0 is no effect and 100 is complete control
How it was run: as §1

[12] = tested on: pigweed (Amaranthus retroflexus); assay: Test A postemergence; conditions: for Pigweed plant response rating: 125 g ai/ha, postemergence, visual injury rating on 0 to 100 scale (0 no effect, 100 complete control), approx. 10 d; for Plant response rating, Pigweed: Postemergence, 500 g ai/ha, 0 to 100 scale where 0 is no effect and 100 is complete control
How it was run: as §1

[13] = tested on: ragweed (common ragweed, Ambrosia elatior); assay: Test A postemergence; conditions: for Ragweed plant response rating: 125 g ai/ha, postemergence, visual injury rating on 0 to 100 scale (0 no effect, 100 complete control), approx. 10 d; for Plant response rating, Ragweed: Postemergence, 500 g ai/ha, 0 to 100 scale where 0 is no effect and 100 is complete control
How it was run: as §1

[14] = tested on: ryegrass, Italian (Italian ryegrass, Lolium multiflorum); assay: Test A postemergence; conditions: for Ryegrass, Italian plant response rating: 125 g ai/ha, postemergence, visual injury rating on 0 to 100 scale (0 no effect, 100 complete control), approx. 10 d; for Plant response rating, Ryegrass, Italian: Postemergence, 500 g ai/ha, 0 to 100 scale where 0 is no effect and 100 is complete control
How it was run: as §1

[15] = tested on: wheat (Triticum aestivum); assay: Test A postemergence; conditions: for Wheat plant response rating: 125 g ai/ha, postemergence, visual injury rating on 0 to 100 scale (0 no effect, 100 complete control), approx. 10 d; for Plant response rating, Wheat: Postemergence, 500 g ai/ha, 0 to 100 scale where 0 is no effect and 100 is complete control
How it was run: as §1

[16] = tested on: barnyardgrass (Echinochloa crus-galli); assay: Test B flooded paddy test; conditions: Flood, 250 g ai/ha; 0 to 100 scale where 0 is no effect and 100 is complete control; 13 to 15 d
How it was run: (§2)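 Response scored visually against untreated controls, 0 = no effect and 100 = complete control, 13–15 d after treatment in the greenhouse. Compounds added to paddy water held 3 cm above soil surface. Treatment given at 2-leaf stage.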

[17] = tested on: ducksalad (Heteranthera limosa); assay: Test B flooded paddy test; conditions: Flood, 250 g ai/ha; 0 to 100 scale where 0 is no effect and 100 is complete control; 13 to 15 d
How it was run: as §2

rice (Oryra sativa) = assay: Test B flooded paddy test; conditions: Flood, 250 g ai/ha; 0 to 100 scale where 0 is no effect and 100 is complete control; 13 to 15 d
How it was run: as §2

[18] = tested on: sedge, umbrella (small-flower umbrella sedge, Cyperus difformis); assay: Test B flooded paddy test; conditions: Flood, 250 g ai/ha; 0 to 100 scale where 0 is no effect and 100 is complete control; 13 to 15 d
How it was run: as §2

[19] = Preemergence, visual injury after approximately 10 d, 0 to 100 scale where 0 is no effect and 100 is complete control
[20] = Postemergence, 0 to 100 scale where 0 is no effect and 100 is complete control
[21] = preemergence, 0 to 100 scale (0 no effect, 100 complete control)
[22] = postemergence, 0 to 100 scale, 0 no effect, 100 complete control

CC(C)c1ccc(C2CNC(=O)C2C(=O)Nc2ccccc2S(C)(=O)=O)cc1 (racemic) [Compound 500]
50: Plant response rating, Kochia (Kochia (Kochia scoparia) [1]; [19]) | Kochia plant response rating (0 to 100 scale, 0 is no effect, 100 is complete control) (Kochia (Kochia scoparia) [1]; Preemergence) | Plant response rating, Barnyardgrass [9, 20] | Plant response rating, Foxtail, Giant [11]
40: Barnyardgrass plant response rating (0 to 100 scale, 0 is no effect, 100 is complete control) ([2]; Preemergence) | Plant response rating, Ragweed [13]
0: Plant response rating, Barnyardgrass [2, 19] | Plant response rating, Pigweed [4] | Plant response rating, Ragweed [5] | Ragweed plant response rating (0 to 100 scale, 0 is no effect, 100 is complete control) [5] | Plant response rating, Ryegrass, Italian [6] | Ryegrass, Italian plant response rating (0 to 100 scale, 0 is no effect, 100 is complete control) [6] | Galium plant response rating [7] | Plant response rating, Galium [7] | Kochia plant response rating (Kochia (Kochia scoparia) [8]) | Barnyardgrass plant response rating ([9]; postemergence) | Blackgrass plant response rating ([10]; postemergence) | Plant response rating, Blackgrass [10, 20] | Corn plant response rating (corn (Zea mays); postemergence) | Foxtail, Giant plant response rating [11] | Pigweed plant response rating [12] | Plant response rating, Pigweed [12] | Ragweed plant response rating [13] | Ryegrass, Italian plant response rating [14] | Plant response rating, Ryegrass, Italian [14] | Wheat plant response rating [15] | Plant response rating, Barnyardgrass [16] | Plant response rating, Rice (rice (Oryra sativa)) | Plant response rating, Sedge, Umbrella [18]
65: Plant response rating, Ducksalad [17]
20: Pigweed plant response rating (0 to 100 scale, 0 is no effect, 100 is complete control) [4] | Plant response rating, Kochia (Kochia (Kochia scoparia) [8]) | Plant response rating, Corn (corn (Zea mays); [20]) | Plant response rating, Wheat [15]
90: Foxtail, Giant plant response rating (0 to 100 scale, 0 is no effect, 100 is complete control) ([3]; Preemergence)
80: Plant response rating, Foxtail, Giant [3, 19]

CC(C)c1ccc(C2CNC(=O)C2C(=O)Nc2ccccc2F)cc1 (stereo not drawn) [Compound 469]
60: Plant response rating, Foxtail, Giant [11]
0: Plant response rating, Kochia (Kochia (Kochia scoparia) [1]; [21]) | Kochia plant response rating (0 to 100 scale, 0 is no effect, 100 is complete control) (Kochia (Kochia scoparia) [1]; Preemergence) | Plant response rating, Pigweed [4] | Pigweed plant response rating (0 to 100 scale, 0 is no effect, 100 is complete control) [4] | Plant response rating, Ragweed [5] | Ragweed plant response rating (0 to 100 scale, 0 is no effect, 100 is complete control) [5] | Plant response rating, Ryegrass, Italian [6] | Ryegrass, Italian plant response rating (0 to 100 scale, 0 is no effect, 100 is complete control) [6] | Galium plant response rating [7] | Plant response rating, Galium [7] | Kochia plant response rating (Kochia (Kochia scoparia) [8]) | Plant response rating, Kochia (Kochia (Kochia scoparia) [8]) | Blackgrass plant response rating ([10]; postemergence) | Corn plant response rating (corn (Zea mays); postemergence) | Plant response rating, Corn (corn (Zea mays); [22]) | Pigweed plant response rating [12] | Plant response rating, Pigweed [12] | Ragweed plant response rating [13] | Plant response rating, Ragweed [13] | Ryegrass, Italian plant response rating [14] | Wheat plant response rating [15] | Plant response rating, Wheat [15] | Plant response rating, Rice (rice (Oryra sativa)) | Plant response rating, Sedge, Umbrella [18]
80: Plant response rating, Barnyardgrass [2, 21] | Plant response rating, Foxtail, Giant [3, 21] | Plant response rating, Barnyardgrass [9, 22]
70: Barnyardgrass plant response rating ([9]; postemergence) | Plant response rating, Ducksalad [17]
40: Plant response rating, Blackgrass [10, 22] | Plant response rating, Barnyardgrass [16]
90: Barnyardgrass plant response rating (0 to 100 scale, 0 is no effect, 100 is complete control) ([2]; Preemergence) | Foxtail, Giant plant response rating (0 to 100 scale, 0 is no effect, 100 is complete control) ([3]; Preemergence)
20: Foxtail, Giant plant response rating [11] | Plant response rating, Ryegrass, Italian [14]
